Results as given in ChEMBL document CHEMBL5154879, “Induction of Genes Implicated in Stress Response and Autophagy by a Novel Quinolin-8-yl-nicotinamide QN523 in Pancreatic Cancer” (J Med Chem, 2022).
pIC50: −log10 of the molar value. The source made the active and inactive calls. The calls are words filed in the database; no cut-off is given here.

What was measured:
[1] = Upregulation of TXNIP gene expression in human MIA PaCa-2 cells assessed as fold change in TXNIP expression at 1 uM incubated for 24 hrs by Bru-seq analysis relative to control; format: functional
[2] = Downregulation of CXXC5 gene expression in human MIA PaCa-2 cells assessed as fold change in CXXC5 expression at 1 uM incubated for 24 hrs by Bru-seq analysis relative to control; format: functional
MIA PaCa-2 [3] = assay: Induction of cell cycle arrest in human MIA PaCa-2 cells assessed as accumulation of cells at S phase at 0.5 uM incubated for 24 hrs by RNase/propidium iodide staining based flow cytometry analysis (Rvb =27.6 %); format: functional
[4] = Downregulation of SEMA4C gene expression in human MIA PaCa-2 cells assessed as fold change in SEMA4C expression at 1 uM incubated for 24 hrs by Bru-seq analysis relative to control; format: functional
MIA PaCa-2 [5] = assay: Antitumour activity against of human MIA PaCa-2 xenografted in NOD/SCID mouse assessed as reduction in Ki67 expression in tumor by immunohistochemical assay; format: functional
MIA PaCa-2 [6] = assay: Induction of apoptosis in human MIA PaCa-2 cells assessed as live cells at 0.1 uM incubated for 48 hrs by Annexin V-FITC/PI staining based flow cytometry analysis (reference value: 96.3%); format: functional
[7] = Upregulation of CXCL8 gene expression in human MIA PaCa-2 cells assessed as fold change in CXCL8 expression at 1 uM incubated for 24 hrs by Bru-seq analysis relative to control; format: functional
[8] = Toxicity in NOD/SCID mouse xenografted with human MIA PaCa- 2 cells assessed as morphological changes in spleen at 10 to 20 mg/kg, ip administered five times a week for 44 days by H and E staining based inverted microscopic analysis; format: organism-based; conditions: in vivo, 1056 h, dose 10-20 mg/kg, time 44 day
[9] = Downregulation of LMNB2 gene expression in human MIA PaCa-2 cells assessed as fold change in LMNB2 expression at 1 uM incubated for 24 hrs by Bru-seq analysis relative to control; format: functional
MIA PaCa-2 [10] = assay: Induction of circadian rhythm signaling pathway in human MIA PaCa-2 cells by ingenuity pathway analysis; format: functional, cell-based
MIA PaCa-2 [11] = assay: Induction of apoptosis in human MIA PaCa-2 cells assessed as early apoptotic cells at 0.1 uM incubated for 24 hrs by Annexin V-FITC/PI staining based flow cytometry analysis (reference value: 5.1%); format: functional
MIA PaCa-2 [12] = assay: Inhibition of colony formation in human MIA PaCa-2 cells at 0.1 to 1 uM incubated for 10 to 14 days by crystal violet staining based assay; format: functional, cell-based; conditions: dose 0.1-1 µM, time 10-14 day
[13] = Upregulation of ATF3 gene expression in human MIA PaCa-2 cells assessed as fold change in ATF3 expression at 1 uM incubated for 24 hrs by Bru-seq analysis relative to control; format: functional
HCT-116 = assay: Antiproliferative activity against human HCT-116 cells assessed as inhibition of cell growth incubated for 72 hrs by MTT assay; format: functional, cell-based; conditions: HCT-116, 72 h
MIA PaCa-2 [14] = assay: Induction of UPR pathway in human MIA PaCa-2 cells by ingenuity pathway analysis; format: functional, cell-based
[15] = Downregulation of SMAD6 gene expression in human MIA PaCa-2 cells assessed as fold change in SMAD6 expression at 1 uM incubated for 24 hrs by Bru-seq analysis relative to control; format: functional
[16] = Downregulation of ANKDDIA gene expression in human MIA PaCa-2 cells assessed as fold change in ANKDDIA expression at 1 uM incubated for 24 hrs by Bru-seq analysis relative to control; format: functional
MIA PaCa-2 [17] = assay: Upregulation of UPR gene expression in human MIA PaCa-2 cells by gene set enrichment analysis; format: functional, cell-based
MIA PaCa-2 [18] = assay: Upregulation of apoptosis transcription gene expression in human MIA PaCa-2 cells; format: functional, cell-based
MIA PaCa-2 [19] = assay: Upregulation of NFkappaB expression in human MIA PaCa-2 cells by gene set enrichment analysis; format: functional, cell-based
[20] = Upregulation of TRIB3 gene expression in human MIA PaCa-2 cells assessed as fold change in TRIB3 expression at 1 uM incubated for 24 hrs by Bru-seq analysis relative to control; format: functional
[21] = Downregulation of FGF18 gene expression in human MIA PaCa-2 cells assessed as fold change in FGF18 expression at 1 uM incubated for 24 hrs by Bru-seq analysis relative to control; format: functional
[22] = Downregulation of CCDC85C gene expression in human MIA PaCa-2 cells assessed as fold change in CCDC85C expression at 1 uM incubated for 24 hrs by Bru-seq analysis relative to control; format: functional
[23] = Upregulation of SESN2 gene expression in human MIA PaCa-2 cells assessed as fold change in SESN2 expression at 1 uM incubated for 24 hrs by Bru-seq analysis relative to control; format: functional
MIA PaCa-2 [24] = assay: Antitumor activity against human MIA PaCa-2 cells xenografted in NOD/SCID mouse assessed as tumor growth delay at 30 mg/kg, ip administered five times a week starting from day 44 to 51 post first dose; format: functional, organism-based; conditions: time 51.0 day
[25] = Toxicity in NOD/SCID mouse xenografted with human MIA PaCa-2 cells assessed as lethargy at 10 to 20 mg/kg, ip administered five times a week for 44 days; format: organism-based; conditions: in vivo, 1056 h, dose 10-20 mg/kg, time 44 day
MIA PaCa-2 [26] = assay: Additive autophagy activity in human MIA PaCa-2 cells assessed as inhibition of colony formation at 0.001 to 0.1 uM incubated for 7 days in presence of autophagy inhibitor chloroquine by crystal violet staining based assay; format: functional, cell-based; conditions: dose 0.001-0.1 µM, time 7.0 day
[27] = Downregulation of ESPL1 gene expression in human MIA PaCa-2 cells assessed as fold change in ESPL1 expression at 1 uM incubated for 24 hrs by Bru-seq analysis relative to control; format: functional
MIA PaCa-2 [28] = assay: Induction of apoptosis in human MIA PaCa-2 cells assessed as late apoptotic cells at 0.5 uM incubated for 24 hrs by Annexin V-FITC/PI staining based flow cytometry analysis (reference value: 2.04%); format: functional
MIA PaCa-2 [29] = assay: Induction of apoptosis in human MIA PaCa-2 cells assessed as early apoptotic cells at 0.5 uM incubated for 24 hrs by Annexin V-FITC/PI staining based flow cytometry analysis (reference value: 5.1%); format: functional
MIA PaCa-2 [30] = assay: Induction of apoptosis in human MIA PaCa-2 cells assessed as necrotic cells at 0.1 uM incubated for 48 hrs by Annexin V-FITC/PI staining based flow cytometry analysis (reference value: 1.07%); format: functional
MIA PaCa-2 [31] = assay: Downregulation of mitotic spindle gene expression in human MIA PaCa-2 cells by gene set enrichment analysis; format: functional, cell-based
MIA PaCa-2 [32] = assay: Upregulation of HSPA5 gene expression in human MIA PaCa-2 cells incubated for 72 hrs by Western blot analysis; format: functional, cell-based; conditions: DDE = dose-dependent effect
[33] = Downregulation of PLKI gene expression in human MIA PaCa-2 cells assessed as fold change in PLKI expression at 1 uM incubated for 24 hrs by Bru-seq analysis relative to control; format: functional

pIC50 (HCT-116): 7.00
SMILES: O=C(Nc1cccc2cccnc12)c1cnccn1
fold change (FC) [1]: 6
fold change (FC) [2]: 0.4
Activity (MIA PaCa-2 [3]): 45.1%
fold change (FC) [4]: 0.39
Activity (MIA PaCa-2 [5]): Active
Activity (MIA PaCa-2 [6]): 92%
fold change (FC) [7]: 6
Activity [8]: Non-Toxic
fold change (FC) [9]: 0.46
Activity (MIA PaCa-2 [10]): Active
Activity (MIA PaCa-2 [11]): 10.7%
inhibition (MIA PaCa-2 [12]): Active
fold change (FC) [13]: 22
Activity (MIA PaCa-2 [14]): Active
fold change (FC) [15]: 0.44
fold change (FC) [16]: 0.45
Activity (MIA PaCa-2 [17]): Active
Activity (MIA PaCa-2 [18]): Active
Activity (MIA PaCa-2 [19]): Active
fold change (FC) [20]: 14.5
fold change (FC) [21]: 0.32
fold change (FC) [22]: 0.42
fold change (FC) [23]: 5.4
Activity (MIA PaCa-2 [24]): Active
Activity [25]: Non-Toxic
Activity (MIA PaCa-2 [26]): Active
fold change (FC) [27]: 0.4
Activity (MIA PaCa-2 [28]): 2.1%
Activity (MIA PaCa-2 [29]): 10.1%
Activity (MIA PaCa-2 [30]): 1.1%
Activity (MIA PaCa-2 [31]): Active
Activity (MIA PaCa-2 [32]): Dde
fold change (FC) [33]: 0.47
